Measurements taken from patent publication US4146622A, “Aziridinyl quinone anti-transplanted tumor agents” (priority 1977, dated 1979).
Values after ≈ are worked out from the molar mass of the structure shown. Values joined by “and” are separate entries in the source; they are usually repeats but may differ in a detail not shown here. Identical values can stand only once.

Legend:
[1] = tested on: P388 lymphocytic leukemia; assay: Intraperitoneal (IP) lymphocytic leukemia P388 transplanted mouse tumor test; assay type: in vivo, murine; conditions: for OD (optimum dose) / ILS (percentage increase in life span): Table IX; for OD (optimum dose): IP P388, QD1-9; for ILS (percentage increase in life span): IP P388, QD1-9, at OD
Source text: (§1) ^b Ip tumor implantation, ip QD1-9 treatment schedule.
(§2) The L1210, P388 and B16 test systems described in Table II utilize intraperitoneal (IP) tumor implantation and IP drug treatment while the Lewis lung system employs subcutaneous tumor implantation and IP treatment.
(§3) Aqueous saline solution (0.9%) was used as the drug vehicle. Normally, five doses were employed per experiment with the top dose chosen to produce toxicity. The lower doses were 50% of each preceeding dose.
(§4) Consistent with NCI antitumor test protocols, intraperitoneal (IP) administration of the drug was employed with all five tumor systems investigated. Tumor implantation was IP in the systems designated IP leukemia L1210 and P388 as well as B16 melanoma.

B16 melanocarcinoma = assay: Intraperitoneal B16 melanocarcinoma transplanted mouse tumor test; assay type: in vivo, murine; conditions: for OD (optimum dose) / ILS (percentage increase in life span): Table IX; for OD (optimum dose): B16, QD1-9; for ILS (percentage increase in life span): B16, QD1-9, at OD
Source text: as §1, §2, §3, §4

ependymoblastoma = assay: Intracerebral (IC) ependymoblastoma (EM) brain tumor test; assay type: in vivo, murine; conditions: Table X, IC ependymoblastoma; for OD (optimum dose): QD1-5; for ILS (percentage increase in life span): QD1-5, at OD
Source text: ^c Ic tumor implantation, ip QD1-5 treatment schedule.
^g Number of animals alive per six test animals on day of termination
of experiment (day 99 for expt 133 and day 60 for expt 136 and 144).
A third IC transplanted mouse tumor model, the ependymoblastoma system, was also studied. This system requires intracerebral implantation of a solid tumor fragment while the IC L1210 and IC P388 systems utilize IC inoculated ascites tumor fluid. All three use IP drug treatment however. […] Cures (survivors from the group of six mice on the last day of the experiment) are indicated. Experiments 136 and 144 were terminated on day 60. Since the number of cures was about the same, the differences in T/C values in these two experiments reflect differences in the life span of the two different sets of control animals. Experiment 133 was terminated on day 99 with a resulting higher activity value.
The hydrophilic dihydroxypropylamino compound (No. 39), which was curative in the IP L1210 and P388 leukemia systems, was active but gave a large spread in ILS values (53-186%). […] Again, its hydrophilic character may present transport problems in this IC tumor system.

[2] = Room temperature water solubility; assay type: physicochemical; conditions: water; Table VII; room temperature, approximate; read-out: Approx. H2O Sol.
Description: In the following examples, all melting points are uncorrected and were recorded on a Thomas-Hoover capillary melting point apparatus. Elemental analyses were performed by NIAMDD, NIH, Bethesda, Maryland. Fluoranil, ethyleneimine and 2l -methylethyleneimine were obtained commerically. […] New compounds were identified by nmr and ir spectroscopy. In the tetraamino derivatives, the methylene protons of the aziridine rings usually occurred as a singlet at δ2.0-2.2 in CDCl3 or DMSO-d6. This absorption appeared at δ2.40 (CDCl3) for compound 11. Carbonyl absorption frequencies (nujol mull) occurred in the range 1620-1640 cm^-1 for the tetraamino compounds. Satisfactory elemental analyses (+0.4% of calculated values) are indicated by elemental symbols in Table VII. Room temperature water solubilities were determined by the incremental addition (pipet) of water to a weighed amount of compound with shaking. The solubility values in Table VII must be considered as approximate.

lymphoid leukemia L1210 = assay: Intraperitoneal (IP) lymphoid leukemia L1210 transplanted mouse tumor test; assay type: in vivo, murine; conditions: for T - C (average weight change of test group minus control): day 5; for antitumor activity: L1210 system, Q4D and QD1-9 schedules
Source text: ^(a) Day 1-9 treatment schedule (9 injections)
^(b) Day 1,5,9 treatment schedule (3 injections)
^(c) Day 1 only treatment schedule (1 injection)
^(f) Percentage increase in life span of treated animals [(treated
survival .div. control survival) × 100%] - 100%

[3] = Table VIII, IP L1210, Q4D(1,5,9), at OD
[4] = Table VIII, IP L1210, QD1-9 (9 injections)
[5] = Table VIII, IP L1210, QD1-9, at OD
[6] = Table VIII, IP L1210, Q4D(1,5,9) (3 injections)

Row | Structure (SMILES) | OD (optimum dose) [1] | ILS (percentage increase in life span) [1] | OD (optimum dose) (B16 melanocarcinoma) | ILS (percentage increase in life span) (B16 melanocarcinoma) | ILS (percentage increase in life span) (ependymoblastoma) | solubility [2] [µg/mL] | ILS (percentage increase in life span) (lymphoid leukemia L1210; [3]) | OD (optimum dose) (lymphoid leukemia L1210; [4]) [mg/kg/injection] | antitumor activity (lymphoid leukemia L1210) | further results
1 | O=C1C(F)=C(N2CC2)C(=O)C(N2CCOCC2)=C1N1CC1 [Compound 31, 2,5-diaziridinyl-3-fluoro-5-morpholino-1,4-benzoquinone] | 3.0 mg/kg/injection and 6.0 mg/kg/injection | 57% and 54% | 0.7 mg/kg/injection | 18% and 9% | 49% and 40% | 2000 (≈ 6820 µM) |  |  |  | antitumor activity ([1]; IP P388): active; OD (optimum dose) (ependymoblastoma): 0.8 mg/kg/injection and 1.5 mg/kg/injection
2 | O=C1C(N2CCCCC2)=C(N2CC2)C(=O)C(N2CCCCC2)=C1N1CC1 [Compound 44] | 5.0 mg/kg/injection and 10.0 mg/kg/injection | 46% and 77% | 5.0 mg/kg/injection and 2.5 mg/kg/injection |  | 68% and 46% | < 100 | 26% and 22% | 10.0 |  | ILS (percentage increase in life span) (lymphoid leukemia L1210; Table VIII, IP L1210, Day 1 only, at OD): 16% and 8%; ILS (percentage increase in life span) (lymphoid leukemia L1210; [5]): 28%; T - C (average weight change of test group minus control) (lymphoid leukemia L1210; [5]): -2.2 grams
3 | CC(=O)NC1=C(N2CC2(C)C)C(=O)C(NC(C)=O)=C(N2CC2(C)C)C1=O [Compound 21] |  |  |  |  |  |  |  |  | abolished activity | 
4 | CCOC(=O)NC1=C(NCCCl)C(=O)C(NC(=O)OCC)=C(NCCCl)C1=O [Compound 12] |  |  |  |  |  |  |  |  | activity was abolished | 
5 | CCSC1=C(N2CC2)C(=O)C(SCC)=C(N2CC2)C1=O [Compound 5] |  |  |  |  |  |  |  |  | the activity was not reproducible | activity (%ILS) (lymphoid leukemia L1210; IP L1210, Q4D schedule): 30%
6 | O=C1C(N2CCCC2)=C(N2CC2)C(=O)C(N2CCCC2)=C1N1CC1 [Compound 43, 2,5-Diaziridinyl-3,6-dipyrrolidino-1,4-benzoquinone] |  | 72% and 55% | 2.0 mg/kg/injection | 28% and 18% |  | 500 (≈ 1520 µM) | 43% | 2.0 |  | OD (optimum dose) (lymphoid leukemia L1210; Table VIII, IP L1210, Day 1 only (1 injection)): 4.0 mg/kg/injection and 2.0 mg/kg/injection; OD (optimum dose) (lymphoid leukemia L1210; [6]): 6.2 mg/kg/injection; T - C (average weight change of test group minus control) (lymphoid leukemia L1210; [3]): -2.3 grams; OD (optimum dose) (ependymoblastoma): 1.6 mg/kg/injection and 3.1 mg/kg/injection
7 | CCCSC1=C(N2CC2)C(=O)C(SCCC)=C(N2CC2)C1=O [Compound 6] |  |  |  |  |  |  |  |  | inactive | 
8 | O=C1C(N2CC2)=C(N2CCCC(O)C2)C(=O)C(N2CC2)=C1N1CCCC(O)C1 (centres unmarked) [Compound 45] | 1.0 mg/kg/injection | 95% and 78% | 1.0 mg/kg/injection | 40% and 37% | 64% and 48% | 1000 (≈ 2570 µM) | 104% and 84% | 3.0 |  | OD (optimum dose) (lymphoid leukemia L1210; [6]): 6.0 mg/kg/injection and 4.0 mg/kg/injection; animals alive per 6 test animals on day of termination (lymphoid leukemia L1210; Table VIII, IP L1210, Q4D(1,5,9), at OD, day 30): 2; ILS (percentage increase in life span) (lymphoid leukemia L1210; [5]): 59% and 44%; antitumor activity (B16 melanocarcinoma; B16 melanoma): approached minimal reproducible activity
9 | CCOC(=O)NC1=C(N2CC2C)C(=O)C(NC(=O)OCC)=C(N2CC2C)C1=O (centres unmarked) [Compound 10] |  |  |  |  |  |  |  |  | abolished activity | 
10 | CCOC(=O)NC1=C(N2CC2(C)C)C(=O)C(NC(=O)OCC)=C(N2CC2(C)C)C1=O [Compound 11] |  |  |  |  |  |  |  |  | abolished activity | 
